# Test results reported in patent US20180258381A1, “BIO-LAMINA BIOREACTORS AND METHODS OF MAKING AND USING THE SAME” (Oregon State University, priority 2015, published 2018).
# Columns and labels:
# MDH = assay: cPOH inhibition of MDH of culture immobilized in alginate beads; format: cell-based
# Text: The examples described above can be used to determine optimal cPOH concentrations and exposure time to maximize MeOH production. In some examples, cPOH inhibition is rapid and irreversible. In some examples, cPOH inhibited MDH of culture immobilized in alginate beads in less than 100 seconds, and MDH inhibition was maintained after alginate beads were rinsed to remove cPOH.
# M. trichosporium OB3b = assay: Chemostat inhibition with cyclopropanol; format: cell-based
# Text: In one embodiment, a seven-liter chemostat was used to grow a culture of M. trichosporium OB3b without copper present, therefore expressing sMMO. The temperature-controlled jacketed reactor has multiple input and output lines for gas and liquid feed, a paddle stirrer for agitation, sensors for continuous monitoring of pH and DO, and metered oxygen delivery tied to a DO concentration set-point. The reactor was inoculated with a dilute culture of M. trichosporium OB3b and operated in batch mode for approximately one month before continuous fluid flow was established. […] A second two-liter chemostat growing a culture of M. trichosporium OB3b with copper present, expressing pMMO, also was used.
# Cyclopropanol was added under batch-flow conditions with no methane being fed to the reactor to limit methanol competition for MDH and increase the effectiveness of the inhibitor. Methanol accumulated in solution for about 24 hours and then was slowly washed from the reactor (FIG. 35A). The microbial methanol production rate in the chemostat peaked within 24 hours at about 0.5 mg/(L*h) and was essentially zero after two days (FIG. 35B).
# The activity results remained stable at the above values for 5 days after inhibition with cyclopropanol present throughout. […] Complete shutdown of methane oxidation within the chemostat most likely occurred due to very successful inhibition of MDH resulting in a loss of reducing power needed for MMO operation. […] By day 8, methane utilization and oxygen uptake were restored in the chemostat and the biomass concentration increased back to pre-inhibition values. […] The chemostat inhibition experiment is being conducted again with modifications to the concentration of inhibitor and conditions of inhibition in attempt to produce conditions for continuous methanol production and to maintain higher methane oxidation rates throughout.
# In the first two embodiments an estimated 75 μg/L cyclopropanol (cPOH) was added to the chemostat. Methanol production by M. trichosporium OB3b within the chemostat lasted less than 12 hours. Following initial methanol production, cell growth ceased and cells began washing out of the reactor. Once signs of washout were observed formate was added to the chemostat to a concentration of 10 mM. […] In subsequent attempts at methanol production, smaller cyclopropanol additions were used in an attempt to inhibit the organisms enough to produce methanol without disrupting their ability to grow fast enough to avoid washout. […] In each case, a peak in cumulative methanol production was reached followed by a decline indicating the recovery of the methanol oxidation capability of the culture (FIG. 43). […] Since the cyclopropanol concentrations used in these examples were below the detection limit of the analytical method, the cyclopropanol fate in the chemostat is uncertain in some embodiments.
# Throughout each experiment specific oxygen utilization rate (SOUR) tests were conducted with samples from the chemostat as indicators of MDH and methane monooxygenase (MMO) activity (FIGS. 44A and 44B). Methanol SOURs indicate essentially immediate inhibition of MDH activity, although it took up to 1 hour to reach a minimum in activity. Significant methane inhibition is indicated in the methane SOURs and it occurs with essentially the same magnitude and time scale as the methanol SOUR results. The recovery of MDH indicated by SOUR tests correlated with the observed reduction in cumulative methanol production in the chemostat. […] A peak in DO concentration was reached first followed by a peak in pH and lastly methanol concentration. The increase in pH and DO is expected to be the result of incomplete methane oxidation and a subsequent reduction in CO2 production.
# OB3b cells = assay: Long term packed column experiment, cyclopropanol inhibition; format: cell-based, M. trichosporium OB3b
# Procedure: In some examples, OB3b cells were harvested from the chemostats described herein to make alginate beads for a long term packed column experiment. Total cell mass within the column was 300 mg with and the column void space was 6 mL. The flow rates of a methane solution (2 mg/L) were varied and the inlet and outlet concentrations were measured for a methane consumption efficiency curve shown in FIG. 45A.
# An increase in methane consumption with an increase in residence time was observed. The column was then inhibited with cyclopropanol (1/10 dilution) for 18 hours. A flow rate of 2 mL/min was used for all further testing. Methane consumption decreased from 0.21 μmol/hr to 0.15 μmol/hr after the inhibition, while 0.13 μmol/hr of methanol was produced. After 24 hours methanol production decreased to 0.06 μmol/hr and methane consumption increased to 0.24 μmol/hr. The inhibition process was repeated for 18 hours and methanol production evaluated under the same operating conditions. The maximum methanol production rates lasted about 3 hours, and then declined, while methane consumption was maintained. Overall, the column responded similarly to two inhibitions ran at constant flow for two weeks with little problem.
# [1] = test system: methanol dehydrogenase (MDH); assay: MeOH consumption of fresh sMMO expressing culture exposed to cPOH; format: cell-based, M. trichosporium OB3b; settings: highest concentration of cPOH added with 1 mM MeOH
# Procedure: In the absence of CH4, sMMO expressing OB3b in alginate beads were incubated 18 h with cyclopropane (CP, FIG. 36A) and produced an oxidized product hypothesized to be cyclopropanol (cPOH). cPOH is more water soluble than CP, enabling removal of CP by purging the headspace with air (FIG. 36B). Work is progressing on the identification cPOH by mass spec analysis. […] Inhibition of MDH was confirmed by exposing fresh non-inhibited sMMO expressing M. trichosporium OB3b to cPOH (FIG. 36D).
# In the absence of cPOH 1 mM MeOH was consumed <10 minutes, but when cPOH was added with 1 mM MeOH there was a concentration dependent effect on the rate of MeOH consumption. At low and medium cPOH concentrations, significant amounts of MeOH were consumed before the initial time points could be taken.
# [2] = test system: M. trichosporium OB3b culture; assay: Column packed with culture immobilized in alginate beads, cPOH inhibition; format: cell-based
# Procedure: In parallel with the BLP reactor runs, the response of methane consumption and MeOH production in a column packed with M. trichosporium OB3b culture immobilized in alginate beads (0.4 mg cell protein total) was evaluated. The column was incubated under batch conditions for 18 hours with cPOH, then quickly flushed with ˜10 pore volumes of dilute growth media, before dilute media flow containing ˜200 μM CH4 was begun at a rate of 41 ml/hour (FIG. 38). Over the course of day 1, 80±10% of influent CH4 was consumed and MeOH accumulated with an efficiency (MeOH produced/CH4 consumed) of 94±21%. […] To see if MeOH production could be renewed, the column was again exposed to cPOH for 18 hours as previously described. On days 3, 4, and 7, 66±8% of influent CH4 was consumed and MeOH accumulated with an efficiency of >90%.
# [3] = post-inhibition microbial activity sampling
# [4] = after inhibition with cyclopropanol (1/10 dilution) for 18 hours, flow 2 mL/min
# [5] = day 1, after 18 hours with cPOH
# [6] = days 3, 4, and 7, after second 18 hours cPOH exposure
compound,measurement,setting,value
"OC1CC1 [cPOH, cyclopropanol]",time to inhibit MDH,MDH,less than 100 seconds
same,duration of methanol production,M. trichosporium OB3b; addition of 2-8 mg/L cyclopropanol,2 to 6 h
same,effects on pH and DO concentrations within the chemostat,M. trichosporium OB3b; cPOH additions to reach 0.5 μg/L or lower,no discernable effects
same,duration of methanol production within the chemostat,M. trichosporium OB3b; estimated 75 μg/L cyclopropanol added,less than 12 hours
same,peak microbial methanol production rate in the chemostat,M. trichosporium OB3b; peaked within 24 hours after cyclopropanol addition,about 0.5 mg/(L*h)
same,reduction in batch methane oxidation rate,M. trichosporium OB3b; [3],94%
same,reduction in ethylene oxidation rate,M. trichosporium OB3b; [3],97%
same,reduction in formate-dependent oxygen uptake rate,M. trichosporium OB3b; [3],20-25%
same,reduction in methanol-dependent oxygen uptake rate,M. trichosporium OB3b; [3],95%
same,methane consumption,OB3b cells; 24 hours after inhibition,0.24 µmol/h
same,methanol production,OB3b cells; 24 hours after inhibition,0.06 µmol/h
same,methane consumption,OB3b cells; [4],0.15 µmol/h
same,methanol produced,OB3b cells; [4],0.13 µmol/h
same,effect on rate of MeOH consumption,[1],significantly slowed MeOH consumption
same,MeOH accumulation efficiency (MeOH produced/CH4 consumed),[2]; [5],94±21%
same,influent CH4 consumed,[2]; [5],80±10%
same,MeOH accumulation,[2]; day 2,no MeOH accumulated
same,influent CH4 consumed,[2]; day 2,67±6%
same,MeOH accumulation efficiency (MeOH produced/CH4 consumed),[2]; [6],> 90%
same,influent CH4 consumed,[2]; [6],66±8%
